Results taken from patent US3939150A, “Penicillin derivatives” (priority 1973, dated 1976).
“Also recorded” adds a separate entry of the source. Structures can show the parent of a compound that is named as a salt.

Experiments:
male Sprague-Dawley rats [1] = test: Nephrotoxicity after 1 week subcutaneous injection; type: in vivo; conditions: 7 days
Experimental: b. Test antibiotics were administered to male Sprague-Dawley rats by subcutaneous injection daily for 7 days. After seven days, animals were sacrificed and estimated for organ weight and serum urea-nitrogen including visual studies of kidney.

male Sprague-Dawley rats [2] = test: Acute nephrotoxicity in combination with glycerol and furocemide in rats; type: in vivo; conditions: for Serum urea nitrogen: with glycerol 4 ml/Kg of 50% and furocemide 50 mg/Kg s.c., 48 hours; for serum urea nitrogen relative to control group (in words): with glycerol and furocemide
Experimental: c. Glycerol (50%, 4 ml/kg), furocemide (50 mg/kg) and test actibiotics were injected subcutaneously in male Sprague-Dawley rats. […] Animals of each group were sacrificed 48 hours later to estimate serum urea-nitrogen values.

gram negative bacteria = conditions: background; cited from earlier work
[3] = cited from earlier work
[4] = system: Pseudomonas aeruginosa NC-5 strain; test: Protective effect against experimentally infected mice, two oral administrations; type: in vivo, mice infected with Pseudomonas aeruginosa
Experimental: c. Mice (one group included five mice) were infected with Pseudomonas aeruginosa NC-5 strain via the intraperitoneal route and the test substance was orally administered twice, i. e., immediately after challenge of the test organism and after 2 hours.

Klebsiella 78 strain = test: MIC distribution, clinical isolated strains; type: cell-based; conditions: of 78 strains; for number of strains with MIC 1.56: MIC 1.56 μ/ml; for number of strains with MIC 12.5: MIC 12.5 μ/ml; for number of strains with MIC 25: MIC 25 μ/ml; for number of strains with MIC 50: MIC 50 μ/ml; for number of strains with MIC 100: MIC 100 μ/ml; for number of strains with MIC 400: MIC 400 μ/ml; for number of strains with MIC >400: MIC >400 μ/ml
From the text: (§1) It is clear from the results shown in the above tables, as regards the antibacterial activities against clinical isolated strains, the compounds of this invention show quite high activity against not only Pseudomonas aeruginosa but also against Klebsiella as compared with carbenicillin

[5] = system: Pseudomonas aeruginosa NC-5 strain; test: Protective effect against experimentally infected mice, three subcutaneous administrations; type: in vivo, mice infected with Pseudomonas aeruginosa; conditions: s.c.
Experimental: b. Mice (one group included five mice) were infected with pseudomonas aeruginosa NC-5 strain via intraperitoneal route and a solution prepared by dissolving the test substance in sterilized distilled water was administered by subcutaneous injection three times, i. e., immediately after challenge of the test organism, after 2 hours, and after 4 hours.

[6] = system: Pseudomonas aeruginosa NC-5 strain; test: Protective effect against experimentally infected mice, one subcutaneous administration; type: in vivo, mice infected with Pseudomonas aeruginosa; conditions: s.c. once
From the text: a. Mice (one group included five mice) were infected with pseudomonas aeruginosa NC-5 strain the intraperitoneal route and a solution prepared by dissolving the test antibiotics in sterilized distilled water was once administered by subcutaneous injection immediately after challenge of the test organism and then the numbers of living mice were inspected. […] (The figures shown in Tables VII-IX have the same meaning).

[7] = Water solubility and pH of aqueous solution; type: physicochemical; conditions: 250 mg/ml in water
Experimental: As the compounds of this invention are easily soluble in water, the compound can be clinically used as an agent for parenteral administration such as an agent for intravenous injection and an agent for intramuscular injection. For example, when sodium D(-)-6-[α-(p-hydroxyphenyl)-α-(4-oxo-4H-thiopyran-3-yl-carboxanido acetamido]penicillanate is dissolved in water, the pH of the solution is about 5.8 (250 mg/ml).

[8] = system: Proteus mirabilis 1287 strain; test: Protective effect against experimentally infected mice, one subcutaneous administration; type: in vivo, mice infected with Proteus mirabilis; conditions: s.c. once, 2 hours after challenge
Experimental: d. Mice (one group included five mice) were infected with Proteus mirabilis 1287 strain via the intraperitoneal route and a solution prepared by dissolving the test antiobiotics in sterilized distilled water was once administered by subcutaneous injection 2 hours after of challenge of the test organism.

male dd-N mice = test: Acute toxicity (minimum lethal dose); type: in vivo
From the text: a. The minimum lethal doses (MLD) when the compound of this invention was intravenously and subcutaneously administered to male dd-N mice are shown in Table X.

[9] = system: Escherichia coli 31 strain; test: MIC distribution, clinical isolated strains; type: cell-based; conditions: of 31 strains; for number of strains with MIC 1.56: MIC 1.56 μ/ml; for number of strains with MIC 12.5: MIC 12.5 μ/ml; for number of strains with MIC 25: MIC 25 μ/ml; for number of strains with MIC 50: MIC 50 μ/ml; for number of strains with MIC 100: MIC 100 μ/ml; for number of strains with MIC >100: MIC >100 μ/ml
From the text: (Escherichia coli 31 strain)
as §1

[10] = system: Pseudomonas aeruginosa 35 strain; test: MIC distribution, clinical isolated strains; type: cell-based; conditions: of 35 strains; for number of strains with MIC 1.56: MIC 1.56 μ/ml; for number of strains with MIC 12.5: MIC 12.5 μ/ml; for number of strains with MIC 25: MIC 25 μ/ml; for number of strains with MIC 50: MIC 50 μ/ml; for number of strains with MIC 100: MIC 100 μ/ml; for number of strains with MIC >100: MIC >100 μ/ml
From the text: (Pseudomonas aeruginosa 35 strain)
as §1

male Sprague-Dawley rats [11] = conditions: small dose subcutaneously; cited from earlier work
Stability of di-hydrate = type: physicochemical
From the text: In addition, if the water-containing organic solvent solution keeps up its homogeneity, an organic solvent immiscible with water such as methylene chloride, chloroform, etc., may be added to the solution.

Klebsiella genus = conditions: background; cited from earlier work

NC[C@H]1O[C@H](O[C@H]2[C@H](O)[C@@H](O[C@H]3O[C@H](CO)[C@@H](O)[C@H](N)[C@H]3O)[C@H](N)C[C@@H]2N)[C@H](O)[C@@H](O)[C@@H]1O [Kanamycin]
Kidney weights (male Sprague-Dawley rats [1]; 500 mg/kg/day sc): 3.52 g | Serum urea-N (male Sprague-Dawley rats [1]; 500 mg/kg/day sc): 70.7 mg/dL | renal findings (male Sprague-Dawley rats [1]; 500 mg/kg/day sc): renal hypertropy, ischemia of renal cortex; also recorded: abnormal increase of serum urea-nitrogen values; also recorded: severe renal impairement

O=C(Cc1cccs1)N[C@@H]1C(=O)N2C(C(=O)[O-])=C(C[n+]3ccccc3)CS[C@H]12 [Cephaloridine]
Serum urea nitrogen (male Sprague-Dawley rats [2]; 500 mg/Kg s.c.): 50.7 ± 13.6 mg/dL | serum urea nitrogen relative to control group (in words) (male Sprague-Dawley rats [2]): remarkable increase of serum urea nitrogen

CC1(C)S[C@@H]2[C@H](NC(=O)[C@H](N)C3=CCC=CC3)C(=O)N2[C@H]1C(=O)O [Epicillin, 6-[D-2-amino-2-(1,4-cyclohexadien-1-yl)acetamido]penicillanic acid]
activity to gram negative bacteria (in words) (gram negative bacteria): selective antibacterial activity to, in particular, gram negative bacteria

CC1(C)S[C@@H]2[C@H](NC(=O)[C@H](N)c3ccc(O)cc3)C(=O)N2[C@H]1C(=O)O [Amoxicillin, α-amino-p-hydroxybenzylpenicillin]
concentration in blood by oral administration [3]: high concentration in blood by oral administration | number of living mice / number of mice inspected ([4]; 25 × 2 mg): 0/5 | number of living mice / number of mice inspected ([4]; 50 × 2 mg): 0/5 | number of living mice / number of mice inspected ([4]; 100 × 2 mg): 0/5

CC1(C)S[C@@H]2[C@H](NC(=O)[C@H](NC(=O)c3csccc3=O)c3ccc(O)cc3)C(=O)N2[C@H]1C(=O)O [Example 3, α-(4-oxo-4H-thiopyran-3-carboxamido)-p-hydroxybenzylpenicillin sodium salt]
number of strains with MIC 1.56 (Klebsiella 78 strain): 0 | number of strains with MIC […] (Klebsiella 78 strain; MIC 3.13 μ/ml): 0 | number of strains with MIC […] (Klebsiella 78 strain; MIC 6.25 μ/ml): 2 | number of strains with MIC 12.5 (Klebsiella 78 strain): 17 | number of strains with MIC 25 (Klebsiella 78 strain): 30 | number of strains with MIC 50 (Klebsiella 78 strain): 1 | number of strains with MIC 100 (Klebsiella 78 strain; first column headed 100): 1 | number of strains with MIC 100 (Klebsiella 78 strain; second column headed 100): 7 | number of strains with MIC 400 (Klebsiella 78 strain): 4 | number of strains with MIC >400 (Klebsiella 78 strain): 16 | number of living mice / number of mice inspected ([5]; 2.5 × 3 mg): 5/5 | number of living mice / number of mice inspected ([5]; 5 × 3 mg): 5/5 | number of living mice / number of mice inspected ([5]; 10 × 3 mg): 5/5 | number of living mice / number of mice inspected ([6]; 15 mg): 2/5 | number of living mice / number of mice inspected ([6]; 30 mg): 3/5 | number of living mice / number of mice inspected ([6]; 60 mg): 5/5 | number of living mice / number of mice inspected ([4]; 25 × 2 mg): 2/5 | number of living mice / number of mice inspected ([4]; 50 × 2 mg): 3/5 | number of living mice / number of mice inspected ([4]; 100 × 2 mg): 5/5 | pH of the solution [7]: about 5.8 | Kidney weights (male Sprague-Dawley rats [1]; 1000 mg/Kg/day sc): 2.30 g | Serum urea-N (male Sprague-Dawley rats [1]; 1000 mg/Kg/day sc): 20.3 mg/dL | Serum urea nitrogen (male Sprague-Dawley rats [2]; 1000 mg/Kg s.c.): 23.3 ± 2.5 mg/dL | number of living mice / number of mice inspected ([8]; 1.25 mg): 1/5 | number of living mice / number of mice inspected ([8]; 2.5 mg): 2/5 | number of living mice / number of mice inspected ([8]; 5 mg): 4/5 | number of living mice / number of mice inspected ([8]; 10 mg): 3/5 | MLD (male dd-N mice; i.v.): 3500 mg/kg | MLD (male dd-N mice; s.c.): 7000 mg/kg | number of strains with MIC 1.56 [9]: 2 | number of strains with MIC […] ([9]; MIC 3.13 μ/ml): 1 | number of strains with MIC […] ([9]; MIC 6.25 μ/ml): 8 | number of strains with MIC 12.5 [9]: 9 | number of strains with MIC 25 [9]: 2 | number of strains with MIC 50 [9]: 0 | number of strains with MIC 100 [9]: 0 | number of strains with MIC >100 [9]: 9 | number of strains with MIC 1.56 [10]: 2 | number of strains with MIC […] ([10]; MIC 3.13 μ/ml): 5 | number of strains with MIC […] ([10]; MIC 6.25 μ/ml): 6 | number of strains with MIC 12.5 [10]: 6 | number of strains with MIC 25 [10]: 2 | number of strains with MIC 50 [10]: 5 | number of strains with MIC 100 [10]: 2 | number of strains with MIC >100 [10]: 7

OCC(O)CO [glycerol]
renal impairment (male Sprague-Dawley rats [11]): mild and reversible renal impairment

CC1(C)S[C@@H]2[C@H](NC(=O)[C@H](NC(=O)c3csccc3=O)c3ccc(O)cc3)C(=O)N2[C@H]1C(=O)O [Example 27, D(-)-6-[p-hydroxy-phenyl-α-(4-oxo-4H-thiopyran-3-ylcarboxamido)acetamido]penicillanic acid di-hydrate]
stability (Stability of di-hydrate): pure and stable

CC1(C)S[C@@H]2[C@H](NC(=O)C(C(=O)O)c3ccccc3)C(=O)N2[C@H]1C(=O)O (stereo partly drawn) [Carbenicillin, α-carboxybenzylpenicillin]
number of strains with MIC 1.56 (Klebsiella 78 strain): 1 | number of strains with MIC […] (Klebsiella 78 strain; MIC 3.13 μ/ml): 1 | number of strains with MIC […] (Klebsiella 78 strain; MIC 6.25 μ/ml): 1 | number of strains with MIC 12.5 (Klebsiella 78 strain): 0 | number of strains with MIC 25 (Klebsiella 78 strain): 0 | number of strains with MIC 50 (Klebsiella 78 strain): 8 | number of strains with MIC 100 (Klebsiella 78 strain; first column headed 100): 8 | number of strains with MIC 100 (Klebsiella 78 strain; second column headed 100): 16 | number of strains with MIC 400 (Klebsiella 78 strain): 16 | number of strains with MIC >400 (Klebsiella 78 strain): 27 | number of living mice / number of mice inspected ([5]; 2.5 × 3 mg): 2/5 | number of living mice / number of mice inspected ([5]; 5 × 3 mg): 0/5 | number of living mice / number of mice inspected ([5]; 10 × 3 mg): 5/5 | number of living mice / number of mice inspected ([6]; 15 mg): 1/5 | number of living mice / number of mice inspected ([6]; 30 mg): 2/5 | number of living mice / number of mice inspected ([6]; 60 mg): 4/5 | activity against the Klebsiella genus (in words) (Klebsiella genus): weak antibacterial activity against the Klebsiella genus | Kidney weights (male Sprague-Dawley rats [1]; 1000 mg/Kg/day sc): 2.53 g | Serum urea-N (male Sprague-Dawley rats [1]; 1000 mg/Kg/day sc): 24.0 mg/dL | renal findings (male Sprague-Dawley rats [1]; 1000 mg/Kg/day sc): no abnormal findings | Serum urea nitrogen (male Sprague-Dawley rats [2]; 1000 mg/Kg s.c.): 29.7 ± 7.2 mg/dL | nephrotoxicity (in words) (male Sprague-Dawley rats [2]; rat, in vivo): no nephrotoxicity resulted | serum urea nitrogen relative to control group (in words) (male Sprague-Dawley rats [2]): no remarkable difference | number of living mice / number of mice inspected ([8]; 1.25 mg): 0/5 | number of living mice / number of mice inspected ([8]; 2.5 mg): 1/5 | number of living mice / number of mice inspected ([8]; 5 mg): 2/5 | number of living mice / number of mice inspected ([8]; 10 mg): 4/5 | MLD (male dd-N mice; i.v.): 7000 mg/kg | MLD (male dd-N mice; s.c.): > 10000 mg/kg | number of strains with MIC 1.56 [9]: 1 | number of strains with MIC […] ([9]; MIC 3.13 μ/ml): 7 | number of strains with MIC […] ([9]; MIC 6.25 μ/ml): 8 | number of strains with MIC 12.5 [9]: 6 | number of strains with MIC 25 [9]: 0 | number of strains with MIC 50 [9]: 0 | number of strains with MIC 100 [9]: 0 | number of strains with MIC >100 [9]: 9 | number of strains with MIC 1.56 [10]: 0 | number of strains with MIC […] ([10]; MIC 3.13 μ/ml): 0 | number of strains with MIC […] ([10]; MIC 6.25 μ/ml): 0 | number of strains with MIC 12.5 [10]: 0 | number of strains with MIC 25 [10]: 3 | number of strains with MIC 50 [10]: 4 | number of strains with MIC 100 [10]: 8 | number of strains with MIC >100 [10]: 20
